Measurements as given in patent US20250145564A1, “SULFONYLUREA COMPOUND, PREPARATION METHOD THEREFOR, AND APPLICATION THEREOF” (SHANGHAI INSTITUTE OF MATERIA MEDICA, CHINESE ACADEMY OF …, priority 2021, published 2025).

Legend:
[1] = target: T1, sEH in cardiomyocytes (AC16) (Homo sapiens, UniProt P34913); test: Inhibition assay on sEH in cardiomyocytes (14,15-EET/DHET ELISA); format: cell-based; settings: AC16, 0.1, 1 and 10 μM, 24 hours; for content of DHET in cardiomyocytes / content of EETs in cardiomyocytes: compared with the control
T1 construct: endogenous in cells; host or cells: AC16 human cardiomyocyte cell line (ATCC)
T1 sequence (P34913 1-555): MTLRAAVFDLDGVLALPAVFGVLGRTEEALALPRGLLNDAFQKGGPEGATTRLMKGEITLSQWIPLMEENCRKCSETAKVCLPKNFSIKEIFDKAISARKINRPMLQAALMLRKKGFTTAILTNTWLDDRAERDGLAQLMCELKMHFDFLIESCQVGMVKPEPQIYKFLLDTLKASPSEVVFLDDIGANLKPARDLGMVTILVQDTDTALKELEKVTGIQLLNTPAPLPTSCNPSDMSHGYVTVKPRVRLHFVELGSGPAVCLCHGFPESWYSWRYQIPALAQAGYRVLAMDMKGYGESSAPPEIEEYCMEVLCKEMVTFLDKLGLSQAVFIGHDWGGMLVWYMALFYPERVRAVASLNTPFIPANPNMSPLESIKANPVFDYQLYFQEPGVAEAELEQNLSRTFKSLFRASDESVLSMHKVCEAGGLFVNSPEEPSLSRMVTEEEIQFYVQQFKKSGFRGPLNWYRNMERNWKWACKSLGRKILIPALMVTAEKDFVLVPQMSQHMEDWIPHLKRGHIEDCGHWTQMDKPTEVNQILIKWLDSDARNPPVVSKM
Method: (§1) Biomaterial sources: Human cardiomyocyte cell line AC16 was purchased from ATCC, USA. Phenylephrine (PE) was purchased from Sigma Company. AUDA was purchased from Cayman Company.
The compounds were dissolved in DMSO. The working concentrations were 0.1, 1 and 10 μM for the compounds of the present invention, 0.1, 1 and 10 μM for glimepiride, and 1 μM for AUDA. The incubation time was 24 hours.
(§2) The ELISA detection kit (BIOTARGET 14,15-EET/DHET ELISA KIT) from Detroit R&D company was used, and the experiment was conducted according to the instructions of the kit.
(§3) After 24 hours of incubation, cardiomyocytes were collected to perform the above detection.

[2] = system: PE induced cardiomyocyte remodeling (AC16); test: Inhibitory effect on PE induced myocardial injury (BNP mRNA); format: cell-based, human; settings: PE 100 μM, 24 hours; compounds 0.1, 0.5, 1 μM; glimepiride 10 μM
Method: as §1
PE was dissolved in disinfected deionized water with a working concentration of 100 μM. The compounds were dissolved in DMSO, and the working concentrations were 0.1, 0.5, 1 μM for the compounds of the present invention, 10 μM for glimepiride, and 1 μM for AUDA. The incubation time was 24 hours.
(§4) Total RNA was extracted using Invitrogen's Trizol reagent, then cDNA was obtained using TAKARA's reverse transcription kit, and finally the mRNA content of related genes was amplified with specific primers.
as §3

[3] = system: mice with chronic heart failure (TAC); test: Anti-heart failure effect in vivo, TAC mouse model; settings: for impaired cardiac function (EF value, FS value, dp/dt reduced by TAC): daily gavage 0.2 mg/kg and 0.4 mg/kg; for cross-sectional area of cardiomyocytes, HE staining (myocardial hypertrophy) / positive area of Sirius red staining (myocardial fibrosis): daily gavage eight weeks, I-1, I-23 0.2 and 0.4 mg/kg, glimepiride 1.2 mg/kg
Source text: (§5) 12-week-old male C57BL/6 mice, which were purchased from Gempharmatech Co., Ltd, were raised in the SPF animal house of Tongji Medical College, Huazhong University of Science and Technology. After one week of acclimatization in the animal house, the mice were subjected to thoracic aortic constriction as the TAC group. Another group of mice were subjected to thoracotomy without ligation of thoracic aorta as Sham group. Meanwhile, AUDA was used as the positive control.
(§6) Cardiac ultrasound detection was performed on a Visual Sonics Vevo 2100 small animal ultrasound imager. The major measurement indicators include heart rate (HR), left ventricular ejection fraction (LVEF), left ventricular fractional shortening (LVFS), left ventricular internal dimension-diastole (LVIDd) and left ventricular internal dimension-systole (LVIDs), and left ventricular posterior wall thickness (LVPWd and LVPWs).
(§7) The detection was performed on a Millar pressure-volume system from Millar Instr Ment PowerLab. After the animals were anesthetized to an appropriate extent, a midline incision was made in the neck, the right common carotid artery was separated, ligated at the distal end and clipped at the proximal end. A V-shaped incision was made on the artery with microscissors, and a microcatheter was inserted to the left ventricle. Signals were recorded through a conduction system to obtain hemodynamic data such as heart rate (HR), left ventricular end diastolic pressure (PED), left ventricular end systolic pressure (PES), maximum rate of decrease in left ventricular pressure (−dp/dtmin), and maximum rate of increase in left ventricular pressure (+dP/dtmax).
(§8) The myocardial tissue was placed in an embedding frame, soaked and fixed in neutral formaldehyde solution, dehydrated, and embedded in paraffin. The paraffin block was then sliced into sections with a thickness of 4 μm on a microtome. The general appearance of the myocardium was observed through HE staining, and the myocardial fibrosis was observed through Sirius red staining.
as §4
(§9) Cardiac ultrasound examination was performed two weeks after TAC surgery. 24 TAC mice with no significant difference in cardiac function were selected and randomly divided into a model group (TAC) and a treatment group (TAC+compound). The model group received no other treatment, while the treatment group received daily gavage (0.2 mg/kg and 0.4 mg/kg for I-1 and I-23 of the present application, and 1.2 mg/kg for glimepiride). Eight weeks later, i.e., at the chronic heart failure phase, the animals were sacrificed, and tissue specimens were collected to perform the above detections.

[4] = system: mice with chronic heart failure (TAC); test: TAC mouse model, comparison of I-23 and Empagliflozin; format: in vivo
Source text: as §5, §6, §7, §8, §4
as §9, with “(0.44” for “(0.2 mg/kg and 0.4”, “for” for “for I-1 and”, “or 10” for “of the present application, and 1.2”, “Empagliflozin).” for “glimepiride).”
This experiment was to compare the ameliorative effects of I-23 and Empagliflozin on chronic heart failure.

sEH (human recombinant) = target: T2, sEH (human recombinant) (Homo sapiens, UniProt P34913); test: sEH inhibition assay (fluorescence);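 note: enzyme preincubated with compound 30 min at 25 °C, then substrate added and fluorescence read after 15 min at 25 °C, 320 nm and 460 nm, versus DMSO negative control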
T2 sequence (P34913 1-555): T1 sequence (P34913 1-555)
Method: sEH Assay Buffer was purchased from Cayman Chemical; sEH (human recombinant) was purchased from Cayman Chemical; sEH substrate was purchased from Cayman Chemical. The working solution of 20% DMSO for the compounds was prepared by mixing dimethyl sulfoxide with water in a volume ratio of 1:4, and shaking to mix well.
sEH Assay Buffer (10×), SEH (human recombinant) and sEH substrate were thawed on ice.
The sEH Assay Buffer (lux) was prepared into a 1×sEH Assay Buffer with deionized water. 12 μL of sEH was added with 588 µL of 1× Assay Buffer to be diluted 50 times to obtain a sEH working solution. 180 µL of 1× Assay Buffer was added into the corresponding wells; the sEH working solution was added to the corresponding wells at 5 μL/well; the working solution of 20% DMSO for the compounds was added into the corresponding wells at 5 μL/well, and blank wells and negative control wells added with an equal amount of DMSO were set. After centrifuged at 1000 rpm for 1 minute, the wells were incubated at 25° C. for 30 minutes. After incubation, the substrate was added into the 96-wells plate at 5 μL/well and the plate was centrifuged at 1000 rpm for 1 minute. After incubation at 25° C. for 15 minutes, fluorescence values were read at emission wavelengths of 320 nm and 460 nm.

[5] = target: T3, sEH in the hearts of mice with chronic heart failure (Mus musculus, UniProt P34914); test: sEH enzymic activity in hearts of TAC mice; format: in vivo; settings: daily gavage 1.2 mg/kg, eight weeks
T3 construct: from tissue; host or cells: heart tissue of male C57BL/6 mice after TAC surgery
T3 sequence (P34914 1-554): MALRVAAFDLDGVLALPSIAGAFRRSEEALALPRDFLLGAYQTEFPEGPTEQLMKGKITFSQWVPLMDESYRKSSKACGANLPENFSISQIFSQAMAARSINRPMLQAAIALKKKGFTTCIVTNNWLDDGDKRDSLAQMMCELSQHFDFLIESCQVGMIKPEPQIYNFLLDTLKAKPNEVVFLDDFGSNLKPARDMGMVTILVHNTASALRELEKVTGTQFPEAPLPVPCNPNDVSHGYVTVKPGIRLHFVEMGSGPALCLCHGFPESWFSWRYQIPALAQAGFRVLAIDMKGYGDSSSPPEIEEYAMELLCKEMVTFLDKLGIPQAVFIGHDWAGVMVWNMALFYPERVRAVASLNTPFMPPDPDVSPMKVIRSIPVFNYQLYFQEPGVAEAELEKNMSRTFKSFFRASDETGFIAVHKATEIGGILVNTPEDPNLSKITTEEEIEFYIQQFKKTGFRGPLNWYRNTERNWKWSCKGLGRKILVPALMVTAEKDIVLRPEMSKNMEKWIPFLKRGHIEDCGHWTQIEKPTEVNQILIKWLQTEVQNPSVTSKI
Method: as §2, §5, §9

[6] = I-23 0.44 mg/kg vs Empagliflozin 10 mg/kg
[7] = mice, daily gavage eight weeks, I-23 0.44 mg/kg, Empagliflozin 10 mg/kg

Structure (SMILES): CCC1=C(C)CN(C(=O)NCCc2ccc(S(=O)(=O)NC(=O)N[C@H]3CC[C@H](COC(C)=O)CC3)cc2)C1=O [Compound I-23]
- content of DHET in cardiomyocytes [1]: reducing
- content of EETs in cardiomyocytes [1]: significantly increase
- BNP expression induced by PE (cardiomyocyte remodeling) [2]: can inhibit this effect
- impaired cardiac function (EF value, FS value, dp/dt reduced by TAC) ([3]; eight weeks): can inhibit this effect
- cross-sectional area of cardiomyocytes, HE staining (myocardial hypertrophy) [3]: can inhibit this effect
- positive area of Sirius red staining (myocardial fibrosis) [3]: can inhibit this effect
- effect on cardiac hypertrophy relative to Empagliflozin [4, 6]: comparable to that of Empagliflozin
- effect on impaired cardiac function relative to Empagliflozin [4, 6]: comparable to that of Empagliflozin
- cardiac hypertrophy (heart photographs, heart weight/tibia length HW/TL) [4, 7]: reversal effect
- expression of BNP in mouse cardiomyocytes after TAC [4, 7]: can inhibit this effect
- impaired cardiac function (EF value, FS value, LVIDs, dp/dt) [4, 7]: can inhibit this effect
- positive area of Sirius red staining (myocardial fibrosis) [4, 7]: can inhibit this effect
- IC50 (sEH (human recombinant)): 1 to 10 µM

Structure (SMILES): CCC1=C(C)CN(C(=O)NCCc2ccc(S(=O)(=O)N(C)C(=O)N[C@H]3CC[C@H](C)CC3)cc2)C1=O [Compound I-1]
- content of DHET in cardiomyocytes [1]: reducing
- content of EETs in cardiomyocytes [1]: significantly increase
- BNP expression induced by PE (cardiomyocyte remodeling) [2]: can inhibit this effect
- impaired cardiac function (EF value, FS value, dp/dt reduced by TAC) ([3]; eight weeks): can inhibit this effect
- expression of BNP in mouse cardiomyocytes after TAC ([3]; daily gavage 0.2 and 0.4 mg/kg, eight weeks): can inhibit this effect
- cross-sectional area of cardiomyocytes, HE staining (myocardial hypertrophy) [3]: can inhibit this effect
- positive area of Sirius red staining (myocardial fibrosis) [3]: can inhibit this effect
- IC50 (sEH (human recombinant)): 1 to 10 µM

Structure (SMILES): CCC1=C(C)CN(C(=O)NCCc2ccc(S(=O)(=O)NC(=O)N[C@H]3CC[C@H](C)CC3)cc2)C1=O [glimepiride, reference compound]
- inhibitory effect on enzymic activity of sEH in cardiomyocytes ([1]; effect increases as the concentration increases): significant inhibitory effect
- BNP expression induced by PE (cardiomyocyte remodeling) [2]: can inhibit this effect
- impaired cardiac function (EF value and dp/dt reduced by TAC) ([3]; daily gavage 1.2 mg/kg, eight weeks): can inhibit this effect
- cross-sectional area of cardiomyocytes, HE staining (myocardial hypertrophy) [3]: can inhibit this effect
- positive area of Sirius red staining (myocardial fibrosis) [3]: can inhibit this effect
- increase of sEH enzymic activity in the hearts after TAC [5]: could inhibit this effect

Structure (SMILES): Cc1ccc(S(=O)(=O)N(C)C(=O)NN2CC3CCCC3C2)cc1 (stereo not shown) [Compound I-4]
- content of DHET in cardiomyocytes [1]: reducing
- content of EETs in cardiomyocytes [1]: significantly increase
- BNP expression induced by PE (cardiomyocyte remodeling) [2]: can inhibit this effect
- IC50 (sEH (human recombinant)): 1 to 10 µM
